This passage reports GI50 and TGI results from PubChem BioAssay (NCI).

Test in all cases: inhibition of tumour cell growth, NCI panel, 48 h
Experiment [1] concerns 786-0 renal.
Experiment [2] concerns SF-295 CNS.
The test system of experiment [3] is HL-60(TB) leukemia.
For experiment [4], the system named is A549 NSCLC.
Experiment [5] concerns HCT-15 colon.
Experiment [6] deals with BT-549 breast.
Experiment [7] concerns MOLT-4 leukemia.
In experiment [8] the test system is SR leukemia.
Experiment [9] deals with CCRF-CEM leukemia.
The test system of experiment [10] is EKVX NSCLC.

“And” between values parts separate entries of the source, which are not always exact repeats. Identical values can stand only once.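 Compound exposure: 48 hours, 5 concentrations, 96-well plates. The concentration for 50% growth inhibition is given as GI50. Definition used: TGI = concentration required for complete inhibition of growth.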

Turning to `COc1ccc(Cn2c(Br)c3c(c2-c2cc(OC)c(OC)c(OC)c2)CCc2sc(N)nc2-3)cc1`, the GI50 in experiment [1] is 2.17 µM; in [2], 0.556 µM; in experiment [3], 0.465 µM; in [4], 2.23 µM; in [5], 1.05 µM; in experiment [6], 2.39 µM. Further, the GI50 is 1.51 µM in experiment [7], 0.41 µM in experiment [8] and 0.89 µM in [9]. Moreover, the TGI in experiment [1] is > 49.8 µM; in [2], 7.57 µM; in [3], 3.67 µM; in experiment [4], > 100 µM; in [5], > 48.7 µM; in experiment [6], 9.09 µM. Also, the TGI in [7] is > 29.7 µM; in experiment [8], 5.67 µM; in experiment [9], 4.4 µM.
As for `Cc1cccc(Oc2ccc(Nc3ncnc4ccc(NC(=O)CN(C)C)cc34)cc2Cl)c1`, the GI50 in experiment [1] is 1.59 µM; in [2] it was 1.66 µM; in [3], 2.07 µM; in experiment [10], 0.512 µM; in [4], 1.91 µM; in [5] it was 1.6 µM. The GI50 in [6] is 2.4 µM; in [7] it was 2.37 µM; in [9], 2.54 µM. The TGI was determined as 3.16 µM in experiment [1]; 3.2 µM in experiment [2]; 4.72 µM in experiment [3]; 4.19 µM in [10]; 10.1 µM in experiment [4]; 3.13 µM in experiment [5]. Moreover, the TGI in experiment [6] was 8.45 µM; in experiment [7], 6.82 µM; in [9], 8.14 µM.
For `c1cc(OCCCCCOc2cccc(-c3nc4ccccc4[nH]3)c2)cc(-c2nc3ccccc3[nH]2)c1`, the GI50 in [1] was 2.68 µM; in experiment [2] it was 1.65 µM; in experiment [10], 2.21 µM; in experiment [5], 2.71 µM; in [6] it was 1.72 µM. Also, the TGI in experiment [1] is > 100 µM; in [2] it was 6.57 µM; in experiment [10] it was 6.97 µM; in experiment [5], > 100 µM; in experiment [6], 5 µM.
As to `O=C(CC1(O)C(=O)Nc2c(Cl)cc(Cl)cc21)c1cccc([N+](=O)[O-])c1` (configuration not stated), the TGI was > 59.9 µM in experiment [1]; > 100 µM in experiment [2]; > 100 µM in experiment [10]; 98.9 µM in experiment [4]; > 100 µM in experiment [5]; > 100 µM in experiment [6]. The TGI in [7] is 51.5 µM; in [8] it was > 100 µM; in experiment [9] it was 48.2 µM.
In the case of `COc1cc2c(Oc3ccc(-c4cnc(Nc5ccc(F)cc5)n(C)c4=O)cc3F)ccnc2cc1OCCCN1CCOCC1`, the GI50 in [1] was 1.54 µM; in experiment [2], 0.663 µM; in experiment [4], 1.66 µM; in [5] it was 1.18 µM; in [6], 1.86 µM; in [9], 3.04 µM. The TGI in experiment [1] was 3.1 µM; in [2], 1.99 µM; in experiment [4] it was 3.42 µM; in experiment [5], 2.75 µM; in experiment [6], 3.49 µM; in experiment [9], > 100 µM.
Take `O=c1c2cc(Br)ccc2nc(CNc2ccccc2)n1-c1ccccc1`: the TGI in experiment [1] is 28.4 µM; in experiment [2], > 58 µM; in experiment [3], 39.7 µM; in [10], 40.7 µM; in experiment [4], > 62.7 µM; in [5] it was > 47.9 µM. Besides, the values for the TGI in experiment [7], in experiment [8] and in experiment [9] were > 67.7 µM, > 30.4 µM and 13.7 µM, respectively.
In the case of `O=C1c2ccccc2-c2c1c1c(O)cccc1n2Cc1ccccc1`, the GI50 was 15.6 µM in [1]; 6.12 µM in [2]; 16.5 µM in experiment [10]; 16.8 µM in experiment [4]; 27.5 µM in experiment [5]; 20.5 µM in [6]. The GI50 is > 100 µM in [7] and 30.5 µM in experiment [8]. Moreover, the TGI in experiment [1] was 31.9 µM; in experiment [2] it was 18.4 µM; in experiment [10] it was 69.2 µM; in experiment [4], > 100 µM; in [5] it was > 100 µM; in [6] it was 56.1 µM. The TGI in [7] and in experiment [8] was > 100 µM each time.
For the compound `CCOC(=O)C1(C)CCC(C(=O)OC)C1=O` (configuration not stated), the TGI in [1] was > 100 µM; in experiment [2] it was > 100 µM; in experiment [3] it was > 100 µM; in experiment [10] it was > 100 µM; in [4], > 100 µM; in [5] it was 43.1 µM. The TGI was > 100 µM in [7], 51 µM in experiment [8] and 57.7 µM in [9].
As for `CC(C)(C)C1CCC(O)(c2ccccc2)CC1` (configuration not stated), the TGI in experiment [1] was > 100 µM and 41.6 µM; in [2], > 100 µM; in [3], 66.8 µM and 32.5 µM; in experiment [10], > 100 µM and 75.3 µM; in [4], > 100 µM and 89.2 µM; in experiment [5] it was > 100 µM and 52.4 µM. Moreover, the TGI in experiment [7] is > 100 µM and 39.5 µM; in experiment [8], > 100 µM and 33 µM; in experiment [9], > 100 µM.
Regarding `CCCCCCCCCCN=C(N)c1ccc(N2CCN(c3ccc(C(N)=NCCCCCCCCCC)cc3)CC2)cc1`, the GI50 in experiment [1] is 16 µM; in experiment [2], 1.81 µM; in [3] it was 2.17 µM; in experiment [10] it was 4.44 µM; in [4], 3.32 µM; in [5], 14.1 µM. The GI50 was 1.69 µM in experiment [6], > 50 µM in experiment [7] and > 50 µM in [8]. In addition, the TGI in experiment [1] was > 50 µM; in experiment [2], 6.12 µM; in experiment [3], > 50 µM; in [10] it was 21.1 µM; in experiment [4] it was > 50 µM; in [5] it was > 50 µM. Further, the TGI was 5.04 µM in [6], > 50 µM in [7] and > 50 µM in [8].
As to `COC(=O)C1CC(=O)O[C@H]1c1ccc(OC)c(OC)c1` (some centres not stated), the TGI in [1], in experiment [2], in experiment [3], in experiment [10], in experiment [4] and in experiment [5] was > 100 µM each time. In addition, the TGI in [7], in experiment [8] and in [9] was > 100 µM each time.
